In paper PMC5548886 (Cancer Medicine, 2017):

Tests used:
Assay in all cases: IHC of tumor biopsies, H-score change on-treatment vs pretreatment
Assay type in all cases: in vivo, human
MITF = system: MITF
Experimental: (§1) Pharmacodynamic markers were examined using peripheral blood samples, tumor and nevi biopsies (when available) and tumor imaging. BRAF mutation status was determined by Sanger sequencing. Pharmacodynamic markers analyzed, in available tumor/nevus samples obtained before treatment or archival tissue and during treatment on cycle 1, day 8 or day 15, including cytoplasmic p‐MEK, p‐ERK, BIM, c‐KIT, p‐AKT473, pS6 and PTEN, and nuclear p‐ERK, Ki‐67, PARP, cyclin D1, MITF, p27, and p53. Biomarker expression was determined by calculating the percentage of change in the H‐score (14) between on‐treatment and fresh/archival pretreatment specimens. Blood levels of VEGFR‐2 and were assessed before and at multiple time points while on treatment using enzyme‐linked immunosorbent assay (ELISA). […] Changes in standard uptake value (SUV) were determined by a blinded, independent central imaging review panel. Complete metabolic response (CMR) was complete resolution of tumor FDG‐PET uptake so SUV is the same as background. Partial metabolic response (PMR) decrease in sum of the tumor SUV of ≥25% from the baseline scan. Progressive metabolic disease (PMD) was defined as an increase in tumor SUV of ≥25% from the baseline scan, or the appearance of new FDG‐PET uptake in metastatic lesions. Stable metabolic disease (SMD) was defined as a change in tumor SUV between the PMR and PMD criteria.

p27 = system: p27
Experimental: as §1

c-KIT = system: c-KIT
Experimental: as §1

cytoplasmic p-MEK = system: cytoplasmic p-MEK
Experimental: as §1

nuclear p-ERK = system: nuclear p-ERK
Experimental: as §1

cytoplasmic p-ERK = system: cytoplasmic p-ERK
Experimental: as §1

Cn1c(Nc2ccc(C(F)(F)F)cc2)nc2cc(Oc3ccnc(-c4ncc(C(F)(F)F)[nH]4)c3)ccc21 [RAF265]
MITF % change vs pretreatment, Mean(SD) (MITF; All patients, n 21): +197.3(856.9) %
MITF % change vs pretreatment, Median (MITF; All patients, n 21): -13.2%
MITF % change vs pretreatment, Mean(SD) (MITF; DL 5, n 2): +11.8 (23.7) %
MITF % change vs pretreatment, Median (MITF; DL 5, n 2): +11.8%
MITF % change vs pretreatment, Mean(SD) (MITF; DL 6, n 6): +20.1 (111.3) %
MITF % change vs pretreatment, Median (MITF; DL 6, n 6): -6.60%
MITF % change vs pretreatment, Mean(SD) (MITF; DLs 1 - 4, n 9): +400.6(1312.5) %
MITF % change vs pretreatment, Median (MITF; DLs 1 - 4, n 9): -27.3%
MITF % change vs pretreatment, Mean(SD) (MITF; DLs 7 and 7.1, n 4): +98.6 (239.7) %
MITF % change vs pretreatment, Median (MITF; DLs 7 and 7.1, n 4): 0%
P27 % change vs pretreatment, Mean (SD) (p27; All patients, n 20): +86 (251.9) %
P27 % change vs pretreatment, Median (p27; All patients, n 20): +5%
P27 % change vs pretreatment, Mean (SD) (p27; DL 5, n 2): -40 (56.6) %
P27 % change vs pretreatment, Median (p27; DL 5, n 2): -40%
p27 abundance, median increase (p27; DL 6): 30.4%
P27 % change vs pretreatment, Mean (SD) (p27; DL 6, n 5): +156.4 (312.2) %
P27 % change vs pretreatment, Median (p27; DL 6, n 5): +30.4%
p27 abundance, median increase (p27; DL 7/7.1): 72.2%
P27 % change vs pretreatment, Mean (SD) (p27; DLs 1 - 4, n 9): -2.2 (44) %
P27 % change vs pretreatment, Median (p27; DLs 1 - 4, n 9): 0%
P27 % change vs pretreatment, Mean (SD) (p27; DLs 7 and 7.1, n 4): +261.1 (427.3) %
P27 % change vs pretreatment, Median (p27; DLs 7 and 7.1, n 4): +72.2%
CKIT % change vs pretreatment, Median (c-KIT; All patients, n 8): 0%
CKIT % change vs pretreatment, Mean (SD) (c-KIT; DL 6, n 1): 0%
CKIT % change vs pretreatment, Median (c-KIT; DL 6, n 1): 0%
CKIT % change vs pretreatment, Mean (SD) (c-KIT; DLs 1 - 4, n 4): -60 (80) %
CKIT % change vs pretreatment, Median (c-KIT; DLs 1 - 4, n 4): -100%
CKIT % change vs pretreatment, Mean (SD) (c-KIT; DLs 7 and 7.1, n 3): 0%
CKIT % change vs pretreatment, Median (c-KIT; DLs 7 and 7.1, n 3): 0%
cytoplasmic pMEK % change vs pretreatment, Mean (SD) (cytoplasmic p-MEK; All patients, n 23): -4.3 (32) %
cytoplasmic pMEK % change vs pretreatment, Median (cytoplasmic p-MEK; All patients, n 23): -9.1%
cytoplasmic pMEK % change vs pretreatment, Mean (SD) (cytoplasmic p-MEK; DL 5, n 2): 0%
cytoplasmic pMEK % change vs pretreatment, Median (cytoplasmic p-MEK; DL 5, n 2): 0%
cytoplasmic pMEK % change vs pretreatment, Mean (SD) (cytoplasmic p-MEK; DL 6, n 6): -16.1 (17.3) %
cytoplasmic pMEK % change vs pretreatment, Median (cytoplasmic p-MEK; DL 6, n 6): -15.3%
cytoplasmic pMEK % change vs pretreatment, Mean (SD) (cytoplasmic p-MEK; DLs 1 - 4, n 11): +0.8 (44.4) %
cytoplasmic pMEK % change vs pretreatment, Median (cytoplasmic p-MEK; DLs 1 - 4, n 11): -11.1%
cytoplasmic pMEK % change vs pretreatment, Mean (SD) (cytoplasmic p-MEK; DLs 7 and 7.1, n 4): -2.6 (5.3) %
cytoplasmic pMEK % change vs pretreatment, Median (cytoplasmic p-MEK; DLs 7 and 7.1, n 4): 0%
nuclear pERK % change vs pretreatment, Mean (SD) (nuclear p-ERK; All patients, n 21): -2 (51.6) %
nuclear pERK % change vs pretreatment, Median (nuclear p-ERK; All patients, n 21): 0%
nuclear pERK % change vs pretreatment, Mean (SD) (nuclear p-ERK; DL 5, n 2): +18.2 (35.8) %
nuclear pERK % change vs pretreatment, Median (nuclear p-ERK; DL 5, n 2): +18.2%
nuclear pERK % change vs pretreatment, Mean (SD) (nuclear p-ERK; DL 6, n 5): -41.8 (48) %
nuclear pERK % change vs pretreatment, Median (nuclear p-ERK; DL 6, n 5): -22.2%
nuclear pERK % change vs pretreatment, Mean (SD) (nuclear p-ERK; DLs 1 - 4, n 10): +21.1 (52.13) %
nuclear pERK % change vs pretreatment, Median (nuclear p-ERK; DLs 1 - 4, n 10): 0%
nuclear pERK % change vs pretreatment, Mean (SD) (nuclear p-ERK; DLs 7 and 7.1, n 4): -20.3 (31.3) %
nuclear pERK % change vs pretreatment, Median (nuclear p-ERK; DLs 7 and 7.1, n 4): -7.6%
p-ERK IHC staining, on-treatment versus pretreatment (cytoplasmic p-ERK; 23 patients): dose‐dependent p‐ERK inhibition
cytoplasmic pERK % change vs pretreatment, Mean (SD) (cytoplasmic p-ERK; All patients, n 13): -3.6 (48.6) %
cytoplasmic pERK % change vs pretreatment, Median (cytoplasmic p-ERK; All patients, n 13): -11.8%
cytoplasmic pERK % change vs pretreatment, Mean (SD) (cytoplasmic p-ERK; DL 5, n 2): +27.1 (56) %
cytoplasmic pERK % change vs pretreatment, Median (cytoplasmic p-ERK; DL 5, n 2): +27.1%
cytoplasmic pERK % change vs pretreatment, Mean (SD) (cytoplasmic p-ERK; DL 6, n 5): -27.0 (40.9) %
cytoplasmic pERK % change vs pretreatment, Median (cytoplasmic p-ERK; DL 6, n 5): -50.00%
cytoplasmic pERK % change vs pretreatment, Mean (SD) (cytoplasmic p-ERK; DLs 1 - 4, n 2): +52.3 (80) %
cytoplasmic pERK % change vs pretreatment, Median (cytoplasmic p-ERK; DLs 1 - 4, n 2): +52.3%
cytoplasmic pERK % change vs pretreatment, Mean (SD) (cytoplasmic p-ERK; DLs 7 and 7.1, n 4): -17.8 (11.5) %
cytoplasmic pERK % change vs pretreatment, Median (cytoplasmic p-ERK; DLs 7 and 7.1, n 4): -13.5%
p-ERK expression change (cytoplasmic p-ERK; patients treated at DL1-5): increase in p‐ERK expression
p-ERK abundance change (cytoplasmic p-ERK; patients treated at DL 6-7.1): moderately decreased p‐ERK abundance
